Test results reported in US7745483B2, “2-Halofuryl-thienyl-3-carboxamides” (Bayer CropScience AG, priority 2004, dated 2010).

Assay: logP determination by HPLC on a reverse-phase column (EEC Directive 79/831 Annex V.A8)
Assay type: physicochemical
Conditions: pH 2.3, reverse-phase column (C 18), 43° C.
Procedure: The logP values given were determined in accordance with EEC Directive 79/831 Annex V.A8 by HPLC (High Performance Liquid Chromatography) on a reverse-phase column (C 18). Temperature: 43° C. Mobile phases for the determination in the acidic range (pH 2.3): 0.1% aqueous phosphoric acid, acetonitrile; linear gradient from 10% acetonitrile to 90% acetonitrile. Calibration was carried out using unbranched alkan-2-ones (having 3 to 16 carbon atoms) with known logP values (determination of logP values by retention times using linear interpolation between two successive alkanones).

logP | SMILES
3.93 | O=C(Nc1ccccc1-c1ccc(Cl)cc1)c1ccsc1I [Example 8]
3.82 | O=C(Nc1ccccc1-c1ccc(Cl)c(F)c1)c1ccsc1I [Example 9]
4.11 | O=C(Nc1ccccc1-c1ccc(Cl)c(Cl)c1)c1ccsc1I [Example 13]
4.18 | O=C(Nc1ccccc1-c1ccc(C(F)(F)F)cc1Cl)c1ccsc1I [Example 19]
4.28 | O=C(Nc1ccccc1-c1ccc(Br)cc1Cl)c1ccsc1I [Example 21]
3.89 | O=C(Nc1ccccc1-c1ccc(Br)c(F)c1)c1ccsc1I [Example 22]
4.01 | O=C(Nc1ccccc1-c1cccc(Cl)c1Cl)c1ccsc1I [Example 23]
3.89 | Cc1ccc(-c2ccccc2NC(=O)c2ccsc2I)cc1F [Example 25]
3.91 | O=C(Nc1ccccc1-c1ccc(Cl)c(F)c1)c1ccsc1Br [Example 31]
4.21 | O=C(Nc1ccccc1-c1ccc(Br)c(Cl)c1)c1ccsc1I [Example 32]
3.67 | O=C(Nc1ccccc1-c1cccc(Cl)c1F)c1ccsc1I [Example 33]
3.79 | O=C(Nc1ccccc1-c1ccc(F)c(Cl)c1)c1ccsc1I [Example 38]

Continued, compound first:

SMILES | logP
O=C(Nc1ccccc1-c1ccc(Br)cc1)c1ccoc1I [Example 3] | 3.72
O=C(Nc1ccccc1-c1ccc(Br)c(F)c1)c1ccoc1I [Example 4] | 3.58
C=C(CC(C)C)c1ccccc1NC(=O)c1ccsc1I [Example 5] | 4.57
CC(CC(C)(C)C)c1ccccc1NC(=O)c1ccsc1I (centres unmarked) [Example 6] | 4.42
CC(CC(C)(C)C)c1ccccc1NC(=O)c1ccoc1I (centres unmarked) [Example 7] | 4.16
O=C(Nc1ccccc1-c1ccc(Cl)c(Cl)c1)c1ccoc1I [Example 10] | 3.89
O=C(Nc1ccccc1-c1ccc(Cl)cc1)c1ccoc1I [Example 11] | 3.62
C=C(CC(C)(C)C)c1ccccc1NC(=O)c1ccsc1I [Example 14] | 4.78
C=C(CC(C)(C)C)c1ccccc1NC(=O)c1ccoc1I [Example 15] | 4.49
CC(C[Si](C)(C)C)c1ccccc1NC(=O)c1ccoc1I (centres unmarked) [Example 16] | 4.45
CC(C[Si](C)(C)C)c1ccccc1NC(=O)c1ccsc1I (centres unmarked) [Example 17] | 4.69
C[Si](C)(C)CCc1ccccc1NC(=O)c1ccsc1I [Example 18] | 4.43
CC(C)(C)CCc1ccccc1NC(=O)c1ccsc1I [Example 20] | 4.17
O=C(Nc1ccc(F)cc1-c1ccc(Cl)c(Cl)c1)c1ccsc1I [Example 24] | 4.13
O=C(Nc1ccccc1-c1ccc(C(F)(F)F)cc1)c1ccsc1I [Example 26] | 3.89
CC(C)CC(C)c1ccccc1NC(=O)c1ccsc1Br (centres unmarked) [Example 27] | 4.24
CC(CC(C)(C)C)c1ccccc1NC(=O)c1ccsc1Br (centres unmarked) [Example 28] | 4.51
O=C(Nc1ccccc1-c1ccc(Cl)cc1)c1ccsc1Br [Example 29] | 3.99
O=C(Nc1ccccc1-c1ccc(Cl)c(Cl)c1)c1ccsc1Br [Example 30] | 4.25
O=C(Nc1ccncc1-c1ccc(Cl)c(Cl)c1)c1ccsc1I [Example 34] | 2.20
O=C(Nc1ccc(F)cc1-c1cccc(Cl)c1F)c1ccsc1I [Example 35] | 3.69
CC(C[Si](C)(C)C)c1cc(F)ccc1NC(=O)c1ccsc1I (centres unmarked) [Example 36] | 4.67
CC(C)(C)CCc1cc(F)ccc1NC(=O)c1ccsc1I [Example 37] | 4.16
CC1CC(C)(C)c2cccc(NC(=O)c3ccsc3I)c21 (centres unmarked) [Example 39] | 4.09

Same assay, conditions: reverse-phase HPLC column (C 18), pH 2.3, reverse-phase column (C 18), 43° C.

chromatographic logP | SMILES
4.14 | CC(C)CC(C)c1ccccc1NC(=O)c1ccsc1I (centres unmarked) [Example 1, N-[2-(1,3-dimethylbutyl)phenyl]-2-iodothiophene-3-carboxamide]
3.88 | CC(C)CC(C)c1ccccc1NC(=O)c1ccoc1I (centres unmarked) [Example 2, N-[2-(1,3-dimethylbutyl)phenyl]-2-iodo-3-furamide]
